Data set [1] concerns the target Recombinant human FLT3 (amino acids 564-958) (Homo sapiens (Human), UniProt P36888). Kind of data set: FLT3 kinase test (ADP Glo). The format is biochemical. Here is the method: The activity of the FLT3 kinase protein was determined using the ADP Glo® Luminescence Kinase test (Promega; V9103X). In this homogeneous test the amount of ADP remaining after the kinase reaction is quantified by a luciferin-luciferase reaction using luminescence. The luminescence signal obtained correlates with the amount of ADP still present and thus correlates with the activity of the protein kinase.
The test compounds were dissolved in 100% DMSO at a concentration of 10 mM and diluted in DMSO to a concentration of 5 mM. Serial Dilution is done in 1:10 steps in 100% DMSO. All further dilutions of the substances were carried out with test buffer (50 mM Hepes, pH 7.5, 10 mM MgCl2, 1 mM EGTA, 0.01% Brij35, 0.1% BSA) until a concentration was reached which was 2.5 times above the final test concentration (final concentration of the compounds: 50 μM to 0.005 nM). […] FLT3 enzyme was diluted to 5 nM in the test buffer and 4 μl of this dilution were used in the kinase test (final concentration of FLT3=2 nM in a total volume of 10 μl). After 60 minutes incubation at room temperature 2 μl mixture of 2.5 mg/ml substrate (Poly-Glu/Tyr; Sigma #P0275) and 2.5 mM ultra-pure ATP (Promega #V915B) in test buffer were added to each well and the incubation was continued for a further 90 minutes at room temperature.
Positive controls are the reaction mixtures that contain no test substance; negative controls (blanks) are reaction mixtures that contain no kinase.
After 90 minutes, 10 μl ADP-Glo® solution (ADP-Glo Reagent #V912B Promega) (heated to room temperature) were added to each well and incubation was continued for a further 60. minutes. Then 20 μl Kinase detection mix (Detection Buffer #V913B Promega; Kinase Detection Substrate #V914B Promega) were added and incubated for 40 minutes at room temperature. The plates were read in Envision Luminescence Reader (Perkin-Elmer).
The output file of the reader is a csv file that contains the well number and measured RLU. For data evaluation and calculation, the measurement of the negative control was set as 0% ctrl and the measurement of the positive control was set as 100% ctrl. Based on this values the % value for the measurement of each substance concentration can be calculated using an Assay Explorer software (e.g. Accelrys). Normally, the % ctrl values calculated are between 0% and 100% values but may also occur outside these limits in individual cases based on variability or compound characteristics. The IC50 values were calculated from the % ctrl values using Assay Explorer software. Calculation: [y=(a−d)/(1+(x/c)^b)+d], a=low value, d=high value; x=conc. M; c=IC50 M; b=hill; y=% ctrl.
On the technique in general: ADP-Glo turns the ADP formed in a reaction into a luminescent signal.

The test system of another data set is human hepatocytes. Kind of data set: Human hepatocyte stability test. It counts as in vitro ADME. To be noted: human hepatocyte suspension, percent of hepatic blood flow. The method, then:
A more comprehensive way to measure the metabolic stability of a compound of the instant invention than microsomal stability (section 5.6) is the human hepatocyte stability test as described below. Herein the metabolic degradation for the compound in question is performed in a human hepatocyte suspension.
Human hepatocytes (typically cryopreserved) are incubated in an appropriate buffer system (e.g. Dulbecco's modified eagle medium plus 3.5 μg glucagon/500 mL, 2.5 mg insulin/500 mL and 3.75 mg/500 mL hydrocortison) containing 5% species serum.
Following a (typically) 30 min preincubation in an incubator (37° C., 10% CO2) 5 μl of the solution of the compound to be tested ([…]; from 2 mM in DMSO stock solution diluted 1:25 with medium) are added into 395 μl hepatocyte suspension (cell density is in the range of 0.25-5 Mio cells/mL, typically 1 Mio cells/mL; the final concentration of the compound in question is […], the final DMSO concentration is 0.05%).
The cells are incubated for six hours (incubator, orbital shaker) and samples (25 μl) are taken at 0, 0.5, 1, 2, 4 and 6 hours. Samples are transferred into acetonitrile and pelleted by centrifugation (5 min). The supernatant is transferred to a new 96-deepwell plate, evaporated under nitrogen and resuspended.
The decline of the compound to be tested is analyzed by HPLC-MS/MS.
CLint is calculated as follows CL_INTRINSIC=Dose/AUC=(C0/CD)/(AUD+clast/k)×1000/60.
C0: initial concentration in the incubation [μM], CD: cell density of vital cells [10^6 cells/mL], AUD: area under the data [μM×h], clast: concentration of last data point [μM], k: slope of the regression line for the compound in question decline [h−1].
The calculated in vitro hepatic intrinsic clearance can be scaled up to the intrinsic in vivo hepatic Clearance and used to predict hepatic in vivo blood clearance (CL) by the use of a liver model (well stirred model). CL_INTRINSIC_INVIVO [ml/min/kg]=(CL_INTRINSIC [μL/min/10^6cells]×hepatocellularity[10^6 cells/g liver]×liver factor [g/kg bodyweight])/1000 CL [ml/min/kg]=CL_INTRINSIC_INVIVO [ml/min/kg]×hepatic blood flow [ml/min/kg]/(CL_INTRINSIC_INVIVO [ml/min/kg]+hepatic blood flow [ml/min/kg]) Qh[%]=CL [ml/min/kg]/hepatic blood flow [ml/min/kg]) […]
Hepatocellularity, human: 120×10^6 cells/g liver
Liver factor, human: 25.7 g/kg bodyweight
Blood flow, human: 21 ml/(min×kg)
A satisfying human hepatocyte stability for a compound in question measured by this assay is represented by a Qh<20% (whereby the stability is better, the lower the Qh-value is).

The mark [2] stands for this setting: read-out: FLT3 inhibition IC50-value (chapter 5.4).

As usually defined, the IC50 is the midpoint of a concentration-inhibition curve.

Where two headings read alike, the source gives them in different places. Where only a bound is given, the exact number is not on record here.

Recombinant human FLT3 (amino acids 564-958), sequence (P36888 564-958): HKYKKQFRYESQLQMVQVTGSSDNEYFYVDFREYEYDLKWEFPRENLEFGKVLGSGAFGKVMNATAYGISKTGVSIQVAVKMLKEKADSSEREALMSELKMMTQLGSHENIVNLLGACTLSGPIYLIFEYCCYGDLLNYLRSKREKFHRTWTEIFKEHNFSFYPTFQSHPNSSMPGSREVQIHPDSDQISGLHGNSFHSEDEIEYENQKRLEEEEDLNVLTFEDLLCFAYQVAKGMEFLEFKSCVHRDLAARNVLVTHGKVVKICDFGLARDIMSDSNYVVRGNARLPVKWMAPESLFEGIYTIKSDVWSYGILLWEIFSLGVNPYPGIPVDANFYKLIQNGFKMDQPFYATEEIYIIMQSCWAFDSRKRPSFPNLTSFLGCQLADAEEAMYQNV

In the case of `Cc1c2c(O[C@H](C)[C@H]3CNC(=O)C3)cc(-c3cnn(CC(C)C)c3)cc2nn1C` [Example 19, (R)-4-{(R)-1-[6-(1-Isobutyl-1H-pyrazol-4-yl)-2,3-dimethyl-2H-indazol-4-yloxy]-ethyl}-pyrrolidin-2-one], in data set [1] (setting [2]), the IC50 was 4950 nM. Moreover, the “stability in human hepatocytes (chapter 5.7) HEPhu” value (“stability in human hepatocytes” below) with human hepatocytes amounted to 7 % Qh.
Take `Cc1c2c(O[C@H](C)[C@H]3CNC(=O)C3)cc(-c3cnn(C4CC4)c3)cc2nn1C` [Example 20, (R)-4-{(R)-1-[6-(1-Cyclopropyl-1H-pyrazol-4-yl)-2,3-dimethyl-2H-indazol-4-yloxy]-ethyl}-pyrrolidin-2-one]: the IC50 in data set [1] (setting [2]) worked out at 3320 nM. Besides, the “stability in human hepatocytes” value in the data set with human hepatocytes was <4 % Qh.
Regarding `Cc1c2c(O[C@H](C)[C@H]3CNC(=O)C3)cc(-c3cnn(C4CCC4)c3)cc2nn1C` [Example 21, (R)-4-{(R)-1-[6-(1-Cyclobutyl-1H-pyrazol-4-yl)-2,3-dimethyl-2H-indazol-4-yloxy]-ethyl}-pyrrolidin-2-one], in data set [1] (setting [2]), the concentration for half-maximal inhibition (IC50) is 2210 nM. For the same molecule, the “stability in human hepatocytes” value in the data set with human hepatocytes stood at 7 % Qh.
As for `Cc1c2c(O[C@H](C)[C@H]3CNC(=O)C3)cc(-c3cnn(C4CCC(F)(F)C4)c3)cc2nn1C` (stereo partly drawn) [Example 22, (R)-4-((R)-1-{6-[1-(3,3-Difluoro-cyclopentyl)-1H-pyrazol-4-yl]-2,3-dimethyl-2H-indazol-4-yloxy}-ethyl)-pyrrolidin-2-one], the IC50 in data set [1] (setting [2]) was determined as 1950 nM. The “stability in human hepatocytes” value in the data set with human hepatocytes came to 3 % Qh.
For `C[C@@H](Oc1nc(-c2cnn(C(C)(C)C)c2)cc2ncn(C)c12)[C@H]1CNC(=O)C1` [example 3A.02, on page 196 of WO15017610, reference compound], the IC50 in data set [1] (setting [2]) and in data set [1] (read-out: IC50(FLT3)) was 384 nM in each case. In the data set with human hepatocytes, the “stability in human hepatocytes” value worked out at 7 % Qh.
On to `C[C@@H](Oc1cc(-c2cnn(C(C)(C)C)c2)cc2ncn(C)c12)[C@H]1CNC(=O)C1` [example 3B.22 on page 219 of WO15017610, reference compound], for which the IC50 in data set [1] (setting [2]) and in data set [1] (read-out: IC50(FLT3)) was 307 nM each time. Further, the “stability in human hepatocytes” value in the data set with human hepatocytes stood at 5 % Qh.
For `Cc1cnn2cc(-c3cnn(C(C)(C)C)c3)nc(O[C@H](C)[C@H]3CNC(=O)C3)c12` [example 5.20 on page 506 of WO15017610, reference compound], the IC50 in data set [1] (setting [2]) and in data set [1] (read-out: IC50(FLT3)) was 43 nM in each case. Besides, in the data set on human hepatocytes, the “stability in human hepatocytes” value was 31 % Qh.
Consider `Cc1cnn2cc(-c3cnn(C(C)(C)C)c3)cc(O[C@H](C)[C@H]3CNC(=O)C3)c12` [example 6.09 on page 559 of WO15017610, reference compound], for which the IC50 in data set [1] (setting [2]) and in data set [1] (read-out: IC50(FLT3)) was 25 nM in each case. In addition, in the data set on human hepatocytes, the “stability in human hepatocytes” value amounted to 17 % Qh.
As for `Cc1cc2c(O[C@H](C)[C@H]3CNC(=O)C3)cc(-c3cnn(C(C)(C)C)c3)cn2n1` [example 6.60 on page 587 of WO15017610, reference compound], the IC50 in data set [1] (setting [2]) and in data set [1] (read-out: IC50(FLT3)) was 6680 nM throughout. In the data set with human hepatocytes, the “stability in human hepatocytes” value is on record as <4 % Qh.

(Values after patent US10155751B2, “Pyrazolyl-substituted heteroaryls and their use as medicaments” (Boehringer Ingelheim International GmbH, priority 2015, dated 2018).)
